Assay [1] deals with T1, IL-23R (Homo sapiens, UniProt Q5VWK5).
T1 construct: HEK293 cells containing IL-23R, IL-12Rβ1 and a firefly luciferase reporter gene driven by a STAT-inducible promoter (Promega); host or cells: HEK293
T1 sequence (Q5VWK5 24-629): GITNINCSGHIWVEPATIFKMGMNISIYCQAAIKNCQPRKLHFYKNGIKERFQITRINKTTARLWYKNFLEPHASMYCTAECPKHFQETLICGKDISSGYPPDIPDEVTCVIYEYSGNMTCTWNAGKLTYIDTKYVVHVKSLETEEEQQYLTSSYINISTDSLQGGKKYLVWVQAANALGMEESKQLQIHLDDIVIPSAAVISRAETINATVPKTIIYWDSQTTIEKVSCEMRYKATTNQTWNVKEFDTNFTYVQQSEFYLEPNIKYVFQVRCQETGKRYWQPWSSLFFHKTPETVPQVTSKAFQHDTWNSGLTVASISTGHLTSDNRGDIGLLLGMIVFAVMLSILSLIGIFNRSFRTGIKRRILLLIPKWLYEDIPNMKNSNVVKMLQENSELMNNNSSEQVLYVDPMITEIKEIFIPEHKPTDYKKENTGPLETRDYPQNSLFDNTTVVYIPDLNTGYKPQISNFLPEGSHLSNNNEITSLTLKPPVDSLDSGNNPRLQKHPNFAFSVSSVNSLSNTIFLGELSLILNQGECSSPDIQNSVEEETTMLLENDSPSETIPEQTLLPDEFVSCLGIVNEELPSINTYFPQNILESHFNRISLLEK
Kind of assay: IL23R Reporter Assay. The assay is classed as cell-based. The following applies: HEK293 cells containing IL-23R, IL-12Rβ1 and STAT-inducible firefly luciferase reporter; 10 ng/mL IL-23 (EC90); 5 h. The procedure, abridged:
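HEK293 cells carrying IL-23R, IL-12Rβ1 and a STAT-driven firefly luciferase reporter (4000 cells/well) received compound, then 10 ng/mL IL-23 solution (EC90), and were incubated for 5 h at 37° C. BioGlo luminescence was normalised to IL-23 alone (0%) and 30 μM control inhibitor (100%). IC50 came from a 4-parameter Hill fit.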
(In a reporter assay the amount or activity of a reporter protein is the signal.)

Assay [2] relates to IL-23-stimulated phosphorylated STAT3 in peripheral blood mononuclear cells (PBMCs). Briefly: PBMC pSTAT3 Assay. The assay is classed as cell-based. The following applies: PBMCs from healthy donors; 30 min preincubation with peptide; IL-23 5 ng/mL for 30 min; phospho-STAT3 by MSD. The procedure, abridged:
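Healthy-donor PBMCs expanded 4 days on anti-CD3 with 100 ng/mL IL-1β, starved ~4 h in RPMI-0.1% BSA, preincubated 30 min with peptide, then stimulated 30 min at 37 °C with 5 ng/mL IL-23. Lysate pSTAT3 measured by MSD phospho-STAT panel; IC50 derived.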

*1 amine or outer side, *2 acyl side, *3 side chain or, on linkers, in order; H or OH if unused. Where a SMILES comes first, the peptide text is derived from it. Bridges are numbered along the chain shown (N, C = ends). Side-chain parts run from the residue outwards. [ ]: non-standard residue; d: D form. The star is where a group is joined. X21 = NC(=O)C[C@H](N[*:1])C(=O)C[C@@H](Cc1cccnc1)C(=O)[*:2]; Me3N+(CH2)2O(CH2)2O(CH2)2CO = C[N+](C)(C)CCOCCOCCC(=O)*; Trp(7-Me) = Cc1cccc2c(C[C@H](N)C(=O)O)c[nH]c12; C18 diacid = O=C(O)CCCCCCCCCCCCCCCCC(=O)*; γGlu = O=C(O)[C@H](CCC(=O)[*:2])N[*:1]; 2Nal = N[C@@H](Cc1ccc2ccccc2c1)C(=O)O; AEF = NCCOc1ccc(C[C@H](N)C(=O)O)cc1; 3Pal = N[C@@H](Cc1cccnc1)C(=O)O; Lys(Me) = CNCCCC[C@H](N)C(=O)O; Pen = CC(C)(S)[C@H](N)C(=O)O; Thp = NC1(C(=O)O)CCOCC1; AEEA = NCCOCCOCC(=O)O; Sar = CNCC(=O)O

A word on the IC50: it is the concentration that gives 50% inhibition. For the molecule `CC(=O)N[C@H](CCCNC(=N)N)C(=O)N[C@@H]1C(=O)N[C@@H](CCCCNC(=O)COCCOCCNC(=O)COCCOCCNC(=O)CC[C@H](NC(=O)CCCCCCCCCCCCCCCCC(=O)O)C(=O)O)C(=O)N[C@@H]([C@@H](C)O)C(=O)N[C@@H](Cc2c[nH]c3c(C)cccc23)C(=O)N[C@@H](CCCCN(C)C(=O)CCOCCOCC[N+](C)(C)C)C(=O)N[C@H](C(=O)N[C@@H](Cc2ccc(OCCN)cc2)C(=O)N[C@@H](Cc2ccc3ccccc3c2)C(=O)NC2(C(=O)N[C@@H](CCC(=O)O)C(=O)N[C@@H](CC(N)=O)C(=O)N[C@@H](Cc3cccnc3)C(=O)N(C)CC(N)=O)CCOCC2)C(C)(C)SSC1(C)C` [compound 76, MeCO-r-Pen(3)-K(PEG2PEG2gEC18OH)-T-7MeW-K(NMecPEG3a)-Pen(3)-AEF-2Nal-THP-E-N-3Pya-Sar-CONH2] (Ac-[dR][Pen]K([AEEA-AEEA-γGlu-C18 diacid])T[Trp(7-Me)][Lys(Me)](Me3N+(CH2)2O(CH2)2O(CH2)2CO)[Pen][AEF][2Nal][Thp]EN[3Pal][Sar]-NH2; disulfide 2-7), the IC50 in assay [1] was below 50 nM; in assay [2], below 0.5 nM.
For the molecule `CC(=O)N[C@H](CCCNC(=N)N)C(=O)N[C@@H]1C(=O)N[C@@H](CCCCNC(=O)COCCOCCNC(=O)COCCOCCNC(=O)CC[C@H](NC(=O)CCCCCCCCCCCCCCCCC(=O)O)C(=O)O)C(=O)N[C@@H]([C@@H](C)O)C(=O)N[C@@H](Cc2c[nH]c3c(C)cccc23)C(=O)N[C@@H](CCCCN(C)C(=O)CCOCCOCC[N+](C)(C)C)C(=O)N[C@H](C(=O)N[C@@H](Cc2ccc(OCCN)cc2)C(=O)N[C@@H](Cc2ccc3ccccc3c2)C(=O)NC2(C(=O)N[C@@H](CCC(=O)O)C(=O)N[C@@H](CC(N)=O)C(=O)N[C@@H](Cc3cccnc3)C(=O)N(C)CC(N)=O)CCOCC2)C(C)(C)SSC1(C)C` [compound 77, 5cpaCO-Pen(3)-N-T-7MeW-K(Ac)-Pen(3)-AEF-2Nal-THP-K(PEG2PEG2gEC18OH)-N-3Pya-Sar-CONH2] (Ac-[dR][Pen]K([AEEA-AEEA-γGlu-C18 diacid])T[Trp(7-Me)][Lys(Me)](Me3N+(CH2)2O(CH2)2O(CH2)2CO)[Pen][AEF][2Nal][Thp]EN[3Pal][Sar]-NH2; disulfide 2-7), the IC50 in assay [1] was 50 to 500 nM; in assay [2], below 0.5 nM.
The matching figures for `CC(=O)NCCCC[C@@H]1NC(=O)[C@H](CC2CNc3c(C)cccc32)NC(=O)[C@H]([C@@H](C)O)NC(=O)[C@H](CC(N)=O)NC(=O)[C@@H](NC(=O)CCOCCOCC[N+](C)(C)C)C(C)(C)SSC(C)(C)[C@@H](C(=O)N[C@@H](Cc2ccc(OCCN)cc2)C(=O)N[C@@H](Cc2ccc3ccccc3c2)C(=O)NC2(C(=O)N[C@@H](CCCCNC(=O)COCCOCCNC(=O)COCCOCCNC(=O)CC[C@H](NC(=O)CCCCCCCCCCCCCCCCC(=O)O)C(=O)O)C(=O)N[C@@H](CC(N)=O)C(=O)N[C@@H](Cc3cccnc3)C(=O)N(C)CC(N)=O)CCOCC2)NC1=O` (stereo partly drawn) [compound 78, cPEG3aCO-Pen(3)-N-T-7MeW-K(Ac)-Pen(3)-AEF-2Nal-THP-K(PEG2PEG2gEC18OH)-N-3Pya-Sar-CONH2]: 50 to 500 nM and below 0.5 nM.
On to `CC(=O)N[C@H](CCCNC(=N)N)C(=O)N[C@@H]1C(=O)N[C@@H](CC(N)=O)C(=O)N[C@@H]([C@@H](C)O)C(=O)N[C@@H](Cc2c[nH]c3c(C)cccc23)C(=O)N[C@@H](CCCCNC(=O)COCCOCCNC(=O)COCCOCCNC(=O)CC[C@H](NC(=O)CCCCCCCCCCCCCCCCC(=O)O)C(=O)O)C(=O)N[C@H](C(=O)N[C@@H](Cc2ccc(OCCN)cc2)C(=O)N[C@@H](Cc2ccc3ccccc3c2)C(=O)NC2(C(=O)N[C@@H](CCCCN(C)C(=O)CCOCCOCC[N+](C)(C)C)C(=O)N[C@@H](CC(N)=O)C(=O)C[C@@H](Cc3cccnc3)C(=O)N(C)CC(N)=O)CCOCC2)C(C)(C)SSC1(C)C` [compound 79, MeCO-r-Pen(3)-N-T-7MeW-K(PEG2PEG2gEC18OH)-Pen(3)-AEF-2Nal-THP-K(NMecPEG3a)-N-3Pya-Sar-CONH2] (Ac-[dR][Pen]NT[Trp(7-Me)]K([AEEA-AEEA-γGlu-C18 diacid])[Pen][AEF][2Nal][Thp][Lys(Me)](Me3N+(CH2)2O(CH2)2O(CH2)2CO)[X21][Sar]-NH2; disulfide 2-7), for which the IC50 was 50 to 500 nM in assay [1] and below 0.5 nM in assay [2].

(Values after patent US20260250320A1, “LIPIDATED PEPTIDE INHIBITORS OF INTERLEUKIN-23 RECEPTOR” (Janssen Pharmaceutica NV, priority 2023, published 2026).)
